Laboratory results from US7279468B2, “Integrin ligands” (Abbott GmbH & Co. KG, priority 2000, dated 2007).

Molecular target: T1, integrin αvβ3 (Homo sapiens, UniProt P05106+P06756)
T1 construct: from tissue; host or cells: human placenta
Assay: Integrin αvβ3 assay (competition between vitronectin and test substance for binding to solid phase-bound integrin αvβ3)
Conditions: competition with human vitronectin, integrin αvβ3 from human placenta, comparison in words only
Method: For the identification and assessment of integrin αvβ3 ligands, a test system was used which was based on competition between the natural integrin αvβ3 ligand vitronectin and the test substance for binding to solid phase-bound integrin αvβ3.
• Microtiter plates coated with 250 ng/ml of integrin αvβ3 in 0.05 M NaHCO3 pH 9.2; 0.1 ml/well; • saturation with 1% powdered milk/assay buffer; 0.3 ml/well; 0.5 h/RT • 3× washing with 0.05% Tween 20/assay buffer • test substance in 0.1% powdered milk/assay buffer, 50 μl/well 0 μg/ml or […] of human vitronectin (Boehringer Ingelheim T007) in 0.1% powdered milk/assay buffer, 50 μl/well; 1 h/RT • 3× washing with 0.05% Tween 20/assay buffer • 1 μg/ml of anti human vitronectin antibody coupled to peroxidase (Kordia SAVN-APHRP) in 0.1% powdered milk/assay buffer; 0.1 ml/well; 1 h/RT • 3× washing with 0.05% Tween 20/assay buffer • 0.1 ml/well of peroxidase substrate • stop reaction with 0.1 ml/well of 2 M H2SO4 • measurement of the absorption at 450 nm • Integrin αvβ3: Human placenta is solubilized with Nonidet and integrin αvβ3 affinity-purified on a GRGDSPK matrix (elution with EDTA). […]

## O=C(O)CC1CCN(CC(=O)NCc2ccc(Nc3nc4ccccc4[nH]3)cc2)C(=O)c2ccccc21 (stereo not shown) [Example II, [2-(2-{[4-(1H-Benzimidazol-2-ylamino)benzyl]amino}-2-oxoethyl)-1-oxo-2,3,4,5-tetrahydro-1H-2-benzazepin-5-yl]acetic acid]
  IC50 values (concentration of the ligand at which 50% of the ligand is displaced): best result
